In ChEMBL document CHEMBL5143696, “Discovery of novel benzothiophene derivatives as potent and narrow spectrum inhibitors of DYRK1A and DYRK1B” (Bioorg Med Chem Lett, 2022):
Activity calls are given as the source filed them. The rule behind the calls is not given here.

Legend:
[1] = biological target: T1, Dual specificity tyrosine-phosphorylation-regulated kinase 1A (Homo sapiens, UniProt Q13627); assay: Inhibition of human DYRK1A incubated for 90 mins in presence of ATP by Z-LYTE based FRET assay
[2] = biological target: T2, Dual specificity tyrosine-phosphorylation-regulated kinase 1B (Homo sapiens, UniProt Q9Y463); assay: Inhibition of human DYRK1B incubated for 130 mins in presence of ATP by ADP-Glo kinase assay
Target sequence in this assay (Q9Y463 whole entry, the tested form may be a part): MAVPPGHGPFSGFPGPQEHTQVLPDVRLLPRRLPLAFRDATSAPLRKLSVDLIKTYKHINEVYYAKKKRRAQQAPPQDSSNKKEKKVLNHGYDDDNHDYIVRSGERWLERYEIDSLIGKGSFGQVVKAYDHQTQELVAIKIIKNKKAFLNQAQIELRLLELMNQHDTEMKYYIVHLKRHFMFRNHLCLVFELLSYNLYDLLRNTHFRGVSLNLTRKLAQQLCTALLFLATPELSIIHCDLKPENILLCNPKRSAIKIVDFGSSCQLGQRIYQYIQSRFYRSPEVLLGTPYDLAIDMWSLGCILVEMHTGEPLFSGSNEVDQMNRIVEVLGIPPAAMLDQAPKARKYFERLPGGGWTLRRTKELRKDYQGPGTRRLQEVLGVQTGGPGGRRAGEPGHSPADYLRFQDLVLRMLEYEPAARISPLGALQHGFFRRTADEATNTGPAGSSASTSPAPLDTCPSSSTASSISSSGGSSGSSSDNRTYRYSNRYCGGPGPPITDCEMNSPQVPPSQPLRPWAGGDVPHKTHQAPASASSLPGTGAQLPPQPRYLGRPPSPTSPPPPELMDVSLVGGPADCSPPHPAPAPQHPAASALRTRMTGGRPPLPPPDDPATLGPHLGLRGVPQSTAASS

[3] = biological target: T1, Dual specificity tyrosine-phosphorylation-regulated kinase 1A; assay: Inhibition of NanoLuc-fused human DYRK1A expressed in HEK293 cells using Nano-Glo as substrate incubated for 2 hrs by NanoBRET assay; assay type: cell-based
[4] = biological target: T2, Dual specificity tyrosine-phosphorylation-regulated kinase 1B; assay: Inhibition of NanoLuc-fused human DYRK1B expressed in HEK293T cells using Nano-Glo as substrate incubated for 2 hrs by NanoBRET assay; assay type: cell-based
Target sequence in this assay (Q9Y463 whole entry, the tested form may be a part): as above

[5] = biological target: Serine/threonine-protein kinase pim-1 (Homo sapiens) (UniProt P11309); assay: Inhibition of His6-tagged full length human recombinant PIM1 expressed in Sf9 insect cells at 1 uM incubated for 60 mins in presence of [gamma33P]ATP by microplate scintillation counter relative to control
[6] = biological target: Cyclin-dependent kinase 8 (Homo sapiens) (UniProt P49336); assay: Inhibition of N-terminal GST-tagged full length human recombinant CDK8 expressed in Sf9 insect cells at 1 uM incubated for 60 mins in presence of [gamma33P]ATP by microplate scintillation counter relative to control
[7] = biological target: Mitogen-activated protein kinase 7 (Homo sapiens) (UniProt Q13164); assay: Inhibition of N-terminal recombinant human ERK5 expressed in Sf9 insect cells at 1 uM incubated for 60 mins in presence of [gamma33P]ATP by microplate scintillation counter relative to control
[8] = biological target: Cyclin-dependent kinase 4 (Homo sapiens) (UniProt P11802); assay: Inhibition of N-terminal GST-tagged full length human recombinant CDK4 expressed in Sf9 insect cells at 1 uM incubated for 60 mins in presence of [gamma33P]ATP by microplate scintillation counter relative to control
[9] = Inhibition of His6-tagged full length human recombinant CDK11 expressed in Sf9 insect cells at 1 uM incubated for 60 mins in presence of [gamma33P]ATP by microplate scintillation counter relative to control
[10] = biological target: T1, Dual specificity tyrosine-phosphorylation-regulated kinase 1A; assay: Inhibition of human DYRK1A expressed in Sf9 insect cells at 1 uM incubated for 60 mins in presence of [gamma33P]ATP by microplate scintillation counter relative to control
[11] = biological target: Cyclin-dependent kinase 6 (Homo sapiens) (UniProt Q00534); assay: Inhibition of N-terminal GST-tagged full length human recombinant CDK6 expressed in Sf9 insect cells at 1 uM incubated for 60 mins in presence of [gamma33P]ATP by microplate scintillation counter relative to control
[12] = biological target: T3, Inhibitor of nuclear factor kappa-B kinase subunit alpha (Homo sapiens) (UniProt O15111); assay: Inhibition of full length human recombinant IKKalpha expressed in baculovirus infected Sf9 cells at 1 uM incubated for 60 mins in presence of [gamma33P]ATP by microplate scintillation counter relative to control
T3 sequence (whole entry): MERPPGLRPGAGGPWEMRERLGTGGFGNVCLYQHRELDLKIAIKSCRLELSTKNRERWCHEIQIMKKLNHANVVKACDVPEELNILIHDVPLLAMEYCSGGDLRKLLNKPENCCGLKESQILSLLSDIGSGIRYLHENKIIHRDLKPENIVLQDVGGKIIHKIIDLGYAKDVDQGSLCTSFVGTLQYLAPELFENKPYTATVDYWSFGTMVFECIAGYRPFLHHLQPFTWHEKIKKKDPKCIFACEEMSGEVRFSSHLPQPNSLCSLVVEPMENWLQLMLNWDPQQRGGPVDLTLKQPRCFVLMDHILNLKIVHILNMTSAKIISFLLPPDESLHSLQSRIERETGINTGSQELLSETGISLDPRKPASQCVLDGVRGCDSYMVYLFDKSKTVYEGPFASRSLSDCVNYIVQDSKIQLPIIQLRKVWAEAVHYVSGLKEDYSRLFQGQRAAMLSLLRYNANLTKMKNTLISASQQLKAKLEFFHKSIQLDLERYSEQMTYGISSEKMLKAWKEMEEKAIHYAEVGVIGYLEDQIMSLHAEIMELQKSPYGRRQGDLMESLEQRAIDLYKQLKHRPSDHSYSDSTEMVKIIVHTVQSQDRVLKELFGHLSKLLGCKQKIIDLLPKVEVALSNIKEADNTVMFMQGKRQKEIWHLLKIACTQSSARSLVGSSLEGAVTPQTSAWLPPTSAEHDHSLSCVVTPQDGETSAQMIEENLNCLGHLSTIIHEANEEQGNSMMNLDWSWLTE

[13] = biological target: T2, Dual specificity tyrosine-phosphorylation-regulated kinase 1B; assay: Inhibition of human DYRK1B expressed in Sf9 insect cells at 1 uM incubated for 60 mins in presence of [gamma33P]ATP by microplate scintillation counter relative to control
Target sequence in this assay (Q9Y463 whole entry, looked up, the tested form may be a part): as the sequence (Q9Y463 whole entry, the tested form may be a part) above

[14] = biological target: Cyclin-dependent kinase 5 (Homo sapiens) (UniProt Q00535); assay: Inhibition of N-terminal GST-tagged full length human recombinant CDK5 expressed in Sf9 insect cells at 1 uM incubated for 60 mins in presence of [gamma33P]ATP by microplate scintillation counter relative to control
[15] = biological target: Cyclin-dependent kinase 16 (Homo sapiens) (UniProt Q00536); assay: Inhibition of His6-tagged full length human recombinant CDK16 expressed in Sf9 insect cells at 1 uM incubated for 60 mins in presence of [gamma33P]ATP by microplate scintillation counter relative to control
[16] = biological target: Serine/threonine-protein kinase pim-3 (Homo sapiens) (UniProt Q86V86); assay: Inhibition of His6-tagged full length human recombinant PIM3 expressed in Sf9 insect cells at 1 uM incubated for 60 mins in presence of [gamma33P]ATP by microplate scintillation counter relative to control
[17] = biological target: T4, Serine/threonine-protein kinase TAO3 (Homo sapiens) (UniProt Q9H2K8); assay: Inhibition of full length human recombinant TAOK3 expressed in baculovirus infected Sf9 cells at 1 uM incubated for 60 mins in presence of [gamma33P]ATP by microplate scintillation counter relative to control
T4 sequence (whole entry): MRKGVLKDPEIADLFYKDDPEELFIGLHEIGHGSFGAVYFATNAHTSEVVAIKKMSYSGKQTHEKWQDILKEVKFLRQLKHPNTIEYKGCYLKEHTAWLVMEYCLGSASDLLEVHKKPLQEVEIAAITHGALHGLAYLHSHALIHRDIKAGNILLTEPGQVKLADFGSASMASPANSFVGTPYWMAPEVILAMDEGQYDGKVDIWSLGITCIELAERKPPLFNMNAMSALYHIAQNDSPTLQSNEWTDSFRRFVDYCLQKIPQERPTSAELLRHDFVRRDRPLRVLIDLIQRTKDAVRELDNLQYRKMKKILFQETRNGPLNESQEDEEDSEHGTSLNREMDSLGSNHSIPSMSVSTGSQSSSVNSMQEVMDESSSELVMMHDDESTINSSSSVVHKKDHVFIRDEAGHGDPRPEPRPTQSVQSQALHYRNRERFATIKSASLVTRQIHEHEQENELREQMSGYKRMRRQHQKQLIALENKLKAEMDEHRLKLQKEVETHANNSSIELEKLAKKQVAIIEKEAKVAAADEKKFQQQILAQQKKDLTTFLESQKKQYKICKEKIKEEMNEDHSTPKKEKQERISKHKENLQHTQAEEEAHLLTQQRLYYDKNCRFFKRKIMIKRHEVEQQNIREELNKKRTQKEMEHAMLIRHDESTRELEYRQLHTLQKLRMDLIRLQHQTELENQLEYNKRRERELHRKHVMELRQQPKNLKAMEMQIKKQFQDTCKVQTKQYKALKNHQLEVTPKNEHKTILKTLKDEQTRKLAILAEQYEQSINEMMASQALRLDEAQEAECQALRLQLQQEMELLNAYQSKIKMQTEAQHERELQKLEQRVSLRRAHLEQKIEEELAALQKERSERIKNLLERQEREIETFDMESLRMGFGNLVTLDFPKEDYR

[18] = tested on: HeLa; assay: Cytotoxicity against human HeLa cells assessed as cell viability at 30 uM incubated for 24 hrs by MTT assay; assay type: functional; conditions: read-out: Activity
[19] = tested on: HeLa; assay: Cytotoxicity against human HeLa cells assessed as reduction in cell viability at 30 uM incubated for 24 hrs in presence of staurosporine by MTT assay; assay type: functional, cell-based
[20] = biological target: T5, Serine/threonine-protein kinase PRP4 homolog (Homo sapiens, UniProt Q13523); assay: Inhibition of human PRP4 using casein as substrate at 1 uM incubated for 120 mins in presence of [gamma-33P-ATP] by radiometric scintillation assay
[21] = biological target: T5, Serine/threonine-protein kinase PRP4 homolog; assay: Inhibition of DNA-tagged human PRP4 expressed in Escherichia coli incubated for 1.5 hrs by KINOMEscan assay

T5 sequence (Q13523 whole entry): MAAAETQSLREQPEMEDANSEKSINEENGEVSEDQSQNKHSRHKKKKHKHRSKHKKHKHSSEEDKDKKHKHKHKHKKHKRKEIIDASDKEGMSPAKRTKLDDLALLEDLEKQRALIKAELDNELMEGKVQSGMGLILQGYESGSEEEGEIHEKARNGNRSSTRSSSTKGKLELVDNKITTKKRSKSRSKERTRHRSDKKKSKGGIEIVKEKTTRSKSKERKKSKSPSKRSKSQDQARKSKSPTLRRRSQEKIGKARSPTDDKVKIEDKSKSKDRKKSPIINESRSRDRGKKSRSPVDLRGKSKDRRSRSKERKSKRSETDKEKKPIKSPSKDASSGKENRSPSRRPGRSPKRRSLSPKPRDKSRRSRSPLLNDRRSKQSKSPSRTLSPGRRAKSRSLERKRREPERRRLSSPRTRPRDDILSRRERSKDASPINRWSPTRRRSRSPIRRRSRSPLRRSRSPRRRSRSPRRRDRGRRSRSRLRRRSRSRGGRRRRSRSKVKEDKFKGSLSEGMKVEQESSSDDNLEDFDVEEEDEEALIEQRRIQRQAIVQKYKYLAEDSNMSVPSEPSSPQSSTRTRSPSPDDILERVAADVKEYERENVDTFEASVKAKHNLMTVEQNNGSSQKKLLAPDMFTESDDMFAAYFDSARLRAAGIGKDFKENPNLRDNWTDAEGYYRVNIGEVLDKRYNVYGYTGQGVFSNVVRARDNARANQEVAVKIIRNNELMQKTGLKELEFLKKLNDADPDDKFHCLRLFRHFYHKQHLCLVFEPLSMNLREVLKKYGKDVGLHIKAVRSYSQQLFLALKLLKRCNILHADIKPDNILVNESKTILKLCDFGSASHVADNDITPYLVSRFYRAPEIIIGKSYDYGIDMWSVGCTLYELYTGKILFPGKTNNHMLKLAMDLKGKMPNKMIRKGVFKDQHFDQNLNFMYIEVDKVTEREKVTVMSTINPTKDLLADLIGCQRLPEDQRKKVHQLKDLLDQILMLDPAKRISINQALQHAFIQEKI
Sequence of Cyclin-dependent kinase 5 (Homo sapiens) (Q00535 whole entry, looked up): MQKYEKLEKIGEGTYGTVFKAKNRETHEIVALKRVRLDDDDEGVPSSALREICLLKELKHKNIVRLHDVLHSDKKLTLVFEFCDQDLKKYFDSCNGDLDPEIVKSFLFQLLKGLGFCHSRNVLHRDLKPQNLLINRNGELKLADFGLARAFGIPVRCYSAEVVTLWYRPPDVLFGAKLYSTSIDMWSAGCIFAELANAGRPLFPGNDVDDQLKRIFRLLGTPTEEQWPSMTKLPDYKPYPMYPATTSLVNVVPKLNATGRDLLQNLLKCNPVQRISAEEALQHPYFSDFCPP
Sequence of Cyclin-dependent kinase 4 (Homo sapiens) (P11802 whole entry): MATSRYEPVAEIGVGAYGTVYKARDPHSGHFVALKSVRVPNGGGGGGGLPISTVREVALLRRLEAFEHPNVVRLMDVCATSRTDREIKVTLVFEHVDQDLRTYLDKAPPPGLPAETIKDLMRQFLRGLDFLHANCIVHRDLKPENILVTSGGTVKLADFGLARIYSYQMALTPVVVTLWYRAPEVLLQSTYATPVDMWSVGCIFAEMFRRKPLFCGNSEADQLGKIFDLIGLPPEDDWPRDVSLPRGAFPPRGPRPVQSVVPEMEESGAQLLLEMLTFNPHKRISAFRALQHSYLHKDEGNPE
Sequence of Serine/threonine-protein kinase pim-1 (Homo sapiens) (P11309 whole entry, looked up): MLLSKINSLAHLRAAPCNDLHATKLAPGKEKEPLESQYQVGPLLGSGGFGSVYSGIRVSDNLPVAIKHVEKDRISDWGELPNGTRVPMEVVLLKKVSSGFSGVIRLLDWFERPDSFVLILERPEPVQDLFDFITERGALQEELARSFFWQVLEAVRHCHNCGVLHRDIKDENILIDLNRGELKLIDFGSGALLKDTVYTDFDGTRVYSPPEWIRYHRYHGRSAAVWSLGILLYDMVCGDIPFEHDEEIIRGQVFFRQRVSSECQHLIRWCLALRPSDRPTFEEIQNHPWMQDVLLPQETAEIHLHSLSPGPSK
Sequence of Cyclin-dependent kinase 8 (Homo sapiens) (P49336 whole entry): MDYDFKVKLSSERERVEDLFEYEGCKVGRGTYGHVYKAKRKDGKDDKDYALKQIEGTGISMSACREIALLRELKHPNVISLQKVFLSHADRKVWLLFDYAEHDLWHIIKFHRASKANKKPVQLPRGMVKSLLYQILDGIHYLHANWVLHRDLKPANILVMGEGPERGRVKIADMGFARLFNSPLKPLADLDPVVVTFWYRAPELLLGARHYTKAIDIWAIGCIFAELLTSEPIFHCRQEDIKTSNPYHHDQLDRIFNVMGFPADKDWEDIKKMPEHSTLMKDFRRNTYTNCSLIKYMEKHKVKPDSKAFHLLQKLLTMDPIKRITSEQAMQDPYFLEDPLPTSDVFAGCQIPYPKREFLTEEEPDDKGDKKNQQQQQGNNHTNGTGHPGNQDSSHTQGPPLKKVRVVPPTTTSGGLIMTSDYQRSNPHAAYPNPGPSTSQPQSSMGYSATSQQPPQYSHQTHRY
Sequence of Cyclin-dependent kinase 16 (Homo sapiens) (Q00536 whole entry): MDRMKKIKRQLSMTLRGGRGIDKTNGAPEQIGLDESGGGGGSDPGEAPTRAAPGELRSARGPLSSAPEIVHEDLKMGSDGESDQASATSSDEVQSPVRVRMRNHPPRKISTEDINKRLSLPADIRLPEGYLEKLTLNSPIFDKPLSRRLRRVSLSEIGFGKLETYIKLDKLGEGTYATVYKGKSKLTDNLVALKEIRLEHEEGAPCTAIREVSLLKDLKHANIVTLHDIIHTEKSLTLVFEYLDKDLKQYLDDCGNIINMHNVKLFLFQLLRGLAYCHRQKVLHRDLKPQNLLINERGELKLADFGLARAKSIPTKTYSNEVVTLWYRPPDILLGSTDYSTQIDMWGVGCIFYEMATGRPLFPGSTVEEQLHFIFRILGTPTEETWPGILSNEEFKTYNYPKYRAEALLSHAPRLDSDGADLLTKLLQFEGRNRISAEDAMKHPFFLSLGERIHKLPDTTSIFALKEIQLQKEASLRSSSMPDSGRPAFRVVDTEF
Sequence of Cyclin-dependent kinase 6 (Homo sapiens) (Q00534 whole entry): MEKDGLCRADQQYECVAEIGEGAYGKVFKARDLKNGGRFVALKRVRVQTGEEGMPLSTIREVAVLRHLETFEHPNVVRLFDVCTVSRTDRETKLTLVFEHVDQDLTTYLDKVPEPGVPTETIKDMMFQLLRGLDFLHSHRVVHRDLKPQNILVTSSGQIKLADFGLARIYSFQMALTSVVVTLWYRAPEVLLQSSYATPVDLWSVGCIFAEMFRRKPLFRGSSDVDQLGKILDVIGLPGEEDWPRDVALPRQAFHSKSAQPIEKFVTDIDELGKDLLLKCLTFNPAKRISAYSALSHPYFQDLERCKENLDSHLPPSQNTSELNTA

Row | Compound | Ki [1] [nM] | Ki [2] [nM] | IC50 [3] [nM] | IC50 [4] [nM] | further results
1 | NC(=O)c1cc2c(-c3ccc(C(=O)NCc4cccc(N)c4)s3)cccc2s1 | 119 | 660 |  |  | 
2 | NC(=O)c1cc2c(-c3ccc(C(=O)NC4CCOCC4)s3)cccc2s1 | 178 | 1100 |  |  | 
3 | NC(=O)c1cc2c(-c3ccc(C(=O)NCC4CC4)s3)cccc2s1 | 95.1 | 980 |  |  | 
4 | NC(=O)c1cc2c(-c3ccc(C(=O)NCc4ccccc4O)s3)cccc2s1 | 9.9 | 65.3 | 4400 | 3400 | 
5 | NC(=O)c1cc2c(-c3ccc(C(=O)NCc4cccc(N)c4)s3)ccc(F)c2s1 | 491 | 2310 |  |  | 
6 | NC(=O)c1cc2c(-c3ccc(C(=O)NCc4ccccc4N)s3)cccc2s1 | 67.8 | 238 | 1100 | 800 | viability at 30 µM [18]: > 75%; Activity [19]: Active; inhibition [20]: 38%; Ki [21]: 1300 nM
7 | NC(=O)c1cc2c(-c3ccc(C(=O)NCc4cccc(O)c4)s3)cccc2s1 | 73 | 370 |  |  | 
8 | NC(=O)c1cc2c(-c3ccc(C(=O)NCc4ccccc4)s3)cccc2s1 | 56.9 | 278 | 4600 | 4300 | 
9 | NC(=O)c1cc2c(-c3ccc(C(=O)NCc4ccc(N)cc4)s3)cccc2s1 | 26.8 | 187 | 2700 | 3600 | 
10 | NC(=O)c1cc2c(-c3ccc(C(=O)NC4CC4)s3)cccc2s1 | 160 | 670 |  |  | 

Now from value to compound, other results behind:

Row | Ki [1] [nM] | Ki [2] [nM] | IC50 [3] [nM] | IC50 [4] [nM] | Compound | further results
11 | 36.2 | 577 | 1700 | 700 | NC(=O)c1cc2c(-c3ccc(C(=O)NCc4ccccc4N)s3)c(Cl)ccc2s1 | 
12 | 93.4 | 1450 |  |  | NC(=O)c1cc2c(-c3ccc(C(=O)NCc4cccc(N)c4)s3)c(Cl)ccc2s1 | 
13 | 89.5 | 814 |  |  | NC(=O)c1cc2c(-c3cc(N)c(C(=O)NC4CC4)s3)cccc2s1 | 
14 | 85.9 | 642 | 2000 | 1800 | NC(=O)c1cc2c(-c3ccc(C(=O)NCc4ccnc(Cl)c4)s3)cccc2s1 | inhibition [5]: > 35%; inhibition [6]: > 35%; inhibition [7]: > 35%; inhibition [8]: > 35%; inhibition [9]: > 35%; inhibition [10]: > 35%; inhibition [11]: > 35%; inhibition [12]: > 35%; inhibition [13]: > 35%; inhibition [14]: > 35%; inhibition [15]: > 35%; inhibition [16]: > 35%; inhibition [17]: > 35%
15 | 101 | 730 |  |  | NC(=O)c1cc2c(-c3ccc(C(=O)N[C@H](CO)Cc4ccccc4)s3)cccc2s1 | 
16 | 105 | 1130 |  |  | NC(=O)c1cc2c(-c3ccc(C(=O)NCc4cccc(O)c4)s3)c(Cl)ccc2s1 | 
17 | 118 | 448 |  |  | NC(=O)c1cc2c(-c3ccc(C(=O)NCCn4cc(CO)nn4)s3)cccc2s1 | 
18 | 359 | 4400 |  |  | NC(=O)c1cc2c(-c3ccc(C(=O)NCc4cccc(Cl)c4)s3)cccc2s1 | 
19 | 85.3 | 1180 |  |  | NC(=O)c1cc2c(-c3ccc(C(=O)NCc4ccccc4O)s3)c(Cl)ccc2s1 | 
